From ChEMBL document CHEMBL1122820, “Purine and 8-substituted purine arabinofuranosyl and ribofuranosyl nucleoside derivatives as potential inducers of the differentiation of the Friend erythroleukemia” (1985)
pIC50: −log10 of the molar value.

How the values were obtained:
[1] = system: Erythroleukemia cell line; assay: Percent benzidine-positive cell differentiation in friend erythroleukemia cells; format: functional, Mus musculus
[2] = system: Erythroleukemia cell line; assay: Percent benzidine-positive cells in friend erythroleukemia cells was evaluated (deoxy-coformycin added at 25 uM); format: functional, Mus musculus
[3] = system: Erythroleukemia cell line; assay: Compound was evaluated for the inhibition of Cellular Replication (deoxy-coformycin added at 25 uM); format: functional; conditions: Mus musculus, read-out: ID50 (the source's name)
[4] = system: Erythroleukemia cell line; assay: Inhibition of Cellular Replication of friend erythroleukemia cells; format: functional; conditions: Mus musculus, read-out: ID50 (the source's name)
[5] = system: Erythroleukemia cell line; assay: Optimum concentration for the extent of differentiation of friend erythroleukemia cells was evaluated.(deoxy-coformycin added at 25 uM); format: functional, Mus musculus
[6] = system: Erythroleukemia cell line; assay: Optimum concentration for differentiation of friend erythroleukemia cells; format: functional, Mus musculus
[7] = system: Erythroleukemia cell line; assay: Percent benzidine-positive cell differentiation of friend erythroleukemia cells was evaluated.(deoxy-coformycin added at 25 uM); format: functional, Mus musculus
[8] = system: Erythroleukemia cell line; assay: Percent benzidine-positive cell differentiation of friend erythroleukemia cells was evaluated (deoxy-coformycin added at 25 uM); format: functional, Mus musculus

Row | SMILES | pIC50 [3] | pIC50 [4] | Differentiation [1] [%] | Differentiation [2] [%] | Optimal concentration [5] [mM] | Optimal concentration [6] [mM] | Differentiation [7] [%] | Differentiation [8] [%]
1 | Nc1ncnc2c1nc(Br)n2[C@@H]1O[C@H](CO)[C@@H](O)[C@H]1O | < 3.00 | < 3.00 | 1 | 1 | 1 | 1 |  | 
2 | Nc1nc2c(O)ncnc2n1[C@@H]1O[C@H](CO)[C@@H](O)[C@@H]1O |  | < 2.30 | 6 |  |  | 4 |  | 
3 | CSc1ncnc2c1ncn2[C@@H]1O[C@H](CO)[C@@H](O)[C@@H]1O |  | < 2.52 | 49 |  |  | 1.5 |  | 
4 | OC[C@H]1O[C@@H](n2c(Br)nc3c(O)ncnc32)[C@@H](O)[C@@H]1O |  | < 2.60 | 1 |  |  | 4 |  | 
5 | CN(C)c1nc2c(O)ncnc2n1[C@@H]1O[C@H](CO)[C@@H](O)[C@@H]1O |  | < 2.10 | 2 |  |  | 8 |  | 
6 | OC[C@H]1O[C@@H](n2c(Br)nc3c(O)ncnc32)[C@H](O)[C@@H]1O |  | < 2.30 | 1 |  |  | 5 |  | 
7 | CN(C)c1nc2c(O)ncnc2n1[C@@H]1O[C@H](CO)[C@@H](O)[C@H]1O |  | < 2.10 | 3 |  |  | 8 |  | 
8 | [N-]=[N+]=N[C@H]1[C@H](O)[C@@H](CO)O[C@H]1n1cnc2c(O)ncnc21 |  | 2.22 | 40 |  |  | 2 |  | 
9 | OC[C@H]1OC(n2c(S)nc3c(O)ncnc32)[C@H](O)[C@@H]1O (stereo partly specified) |  | < 2.40 | 1 |  |  | 4 |  | 
10 | O=c1[nH]c(=O)c2nc(O)n(C3O[C@H](CO)[C@@H](O)[C@H]3O)c2[nH]1 (stereo partly specified) |  | < 2.15 | 3 |  |  | 7 |  | 
11 | O=c1[nH]c(=O)c2nc(Br)n(C3O[C@H](CO)[C@@H](O)[C@H]3O)c2[nH]1 (stereo partly specified) |  | < 2.15 | 1 |  |  | 7 |  | 
12 | O=c1[nH]c(=O)c2nc(OCc3ccccc3)n(C3O[C@H](CO)[C@@H](O)[C@H]3O)c2[nH]1 (stereo partly specified) |  | < 2.15 | 6 |  |  | 7 |  | 
13 | Nc1ncnc2c1ncn2[C@@H]1O[C@H](CO)[C@@H](O)[C@H]1O [ADENOSINE] | 4.30 | < 2.40 | 3 |  | 0.04 | 4 |  | 2
14 | C[S+](C)[O-] [DIMETHYL SULFOXIDE] |  |  | 70 |  |  | 200 |  | 
15 | O=c1[nH]cnc2c1ncn2[C@@H]1O[C@H](CO)[C@@H](O)[C@H]1O [INOSINE] |  | < 2.15 | 12 |  |  | 7 |  | 
16 | OC[C@H]1O[C@@H](n2cnc3c(S)ncnc32)[C@H](O)[C@@H]1O [THIOINOSINE] |  | < 2.70 | 51 |  |  | 1 |  | 
17 | OC[C@H]1O[C@@H](n2cnc3c(O)nc(O)nc32)[C@H](O)[C@@H]1O [XANTHOSINE] |  | < 2.15 |  |  |  | 7 |  | 

Further lines, with some results ahead:

Row | pIC50 [3] | pIC50 [4] | SMILES | Differentiation [1] [%] | Differentiation [2] [%] | Optimal concentration [5] [mM] | Optimal concentration [6] [mM] | Differentiation [7] [%] | Differentiation [8] [%]
18 |  | 3.22 | OC[C@H]1O[C@@H](n2cnc3c(O)ncnc32)[C@@H](O)[C@@H]1O | 82 |  |  | 0.2 |  | 
19 |  | 3.07 | [N-]=[N+]=Nc1nc2c(O)ncnc2n1[C@@H]1O[C@H](CO)[C@@H](O)[C@@H]1O | 20 |  |  | 0.5 |  | 
20 |  | 4.28 | Nc1nc2c(O)ncnc2n1[C@@H]1O[C@H](CO)[C@@H](O)[C@H]1O | 1 |  |  | 0.025 |  | 
21 |  | 3.14 | [N-]=[N+]=Nc1nc2c(O)ncnc2n1[C@@H]1O[C@H](CO)[C@@H](O)[C@H]1O | 30 |  |  | 1 |  | 
22 | 3.07 | 2.80 | Nc1ncnc2c1nc(Br)n2[C@@H]1O[C@H](CO)[C@@H](O)[C@@H]1O | 1 |  | 0.8 | 1.6 | 2 | 
23 |  | 3.96 | OC[C@H]1O[C@@H](n2cnc3c(S)ncnc32)[C@@H](O)[C@@H]1O | 56 |  |  | 0.02 |  | 
24 | 4.16 | 3.27 | OC[C@H]1O[C@@H](n2cnc3c(NO)ncnc32)[C@@H](O)[C@@H]1O | 74 | 20 | 0.04 | 0.2 |  | 
25 |  | 5.15 | CSc1ncnc2c1ncn2[C@@H]1O[C@H](CO)[C@@H](O)[C@H]1O | 51 |  |  | 0.005 |  | 
26 | 5.52 | 4.03 | Nc1ncnc2c1ncn2[C@@H]1O[C@H](CO)[C@@H](O)[C@@H]1O [VIDARABINE] | 4 |  | 0.002 | 0.08 |  | 22
